pEC50, pIC50: −log10 of the molar value. Calls of active or inactive are those of the source. The rule behind the calls is not given here.
Columns and labels:
[1] = target: Neuraminidase (Influenza A virus (strain A/Wilson-Smith/1933 H1N1) (Influenza A virus(strain A/WS/1933 H1N1)), UniProt P03470)
[2] = test system: Influenza A virus; experiment: Antiviral activity against Influenza A virus (A/WSN/1933(H1N1)) infected in MDCK cells assessed as inhibition of virus-induced cytopathic effect after 48 hrs by CellTiter96 Aqueous non-radioactive cell proliferation assay; type: functional, organism-based
[3] = target: Neuraminidase (Influenza A virus (strain A/Wilson-Smith/1933 H1N1) (Influenza A virus(strain A/WS/1933 H1N1)), UniProt P03470); remark: listed apart in the source
[4] = test system: Influenza A virus; experiment: Antiviral activity against Influenza A virus (A/WSN/1933(H1N1)) infected in BALB/c mouse assessed as mouse survival at 0.72 umol/day, po for 5 consecutive days measured on day 14 post dose; type: functional, organism-based
[5] = Cytotoxicity against MDCK cells after 48 hrs by CellTiter96 Aqueous non-radioactive cell proliferation assay; type: cell-based, Canis lupus familiaris; settings: dog
[6] = target: Neuraminidase (Influenza A virus (A/Memphis/1/1971(H3N2)), UniProt P03471); type: cell-based, Influenza A virus (A/Brisbane/10/2007(H3N2)), HEK293
[7] = Stability in rabbit serum at 37 degC after 24 hrs by HPLC-ESI-MS analysis; type: ADME, cell-free, Oryctolagus cuniculus
[8] = test system: Influenza A virus; experiment: Antiviral activity against Influenza A virus (A/WSN/1933(H1N1)) infected in BALB/c mouse assessed as mouse survival at 0.96 umol/day, po for 5 consecutive days measured on day 14 post dose; type: functional
[9] = Drug metabolism in rabbit serum assessed as (1S,2S,3R,4R)-3-[(S)-1-acetamido-2-ethylbutyl]-4-guanidino-2-[(3-hydroxypropyl)carbamoyloxy]cyclopentane-1-carboxylic acid formation at 37 degC after 24 hrs by HPLC-ESI-MS analysis; type: ADME, cell-free, Oryctolagus cuniculus
[10] = Drug metabolism in rabbit serum assessed as 3-[(1S,2R,3R,5S)-2-[(S)-1-acetamido-2-ethylbutyl]-5-carboxy-3-guanidinocyclopentoxycarbonyl]aminopropan-1-aminium trifluoroacetate formation at 37 degC after 24 hrs by HPLC-ESI-MS analysis; type: ADME, cell-free, Oryctolagus cuniculus
[11] = Drug level in rabbit serum treated with (1S,2S,3R,4R)-3-[(S)-1-Acetamido-2-ethylbutyl]-2-[[3-((E)-3-(3,4-dihydroxyphenyl)acryloyloxy)propyl]carbamoyloxy]-4-guanidinocyclopentane-1-carboxylic acid at 37 degC after 24 hrs by HPLC-ESI-MS analysis; type: ADME, cell-free, Oryctolagus cuniculus

Chain of Neuraminidase (Influenza A virus (strain A/Wilson-Smith/1933 H1N1) (Influenza A virus(strain A/WS/1933 H1N1)), UniProt P03470) (P03470 whole entry): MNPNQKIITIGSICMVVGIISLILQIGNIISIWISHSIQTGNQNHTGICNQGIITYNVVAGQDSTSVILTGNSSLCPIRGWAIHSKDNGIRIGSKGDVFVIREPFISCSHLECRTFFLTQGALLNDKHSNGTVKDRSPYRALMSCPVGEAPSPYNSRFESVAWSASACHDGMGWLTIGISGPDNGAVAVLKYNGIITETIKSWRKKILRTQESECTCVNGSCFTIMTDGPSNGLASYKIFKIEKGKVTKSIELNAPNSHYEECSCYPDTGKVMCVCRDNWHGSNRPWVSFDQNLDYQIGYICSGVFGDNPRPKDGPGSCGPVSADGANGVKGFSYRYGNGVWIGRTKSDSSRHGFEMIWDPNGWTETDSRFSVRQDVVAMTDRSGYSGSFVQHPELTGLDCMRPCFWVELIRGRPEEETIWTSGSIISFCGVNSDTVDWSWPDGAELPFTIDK
Chain of Neuraminidase (Influenza A virus (A/Memphis/1/1971(H3N2)), UniProt P03471) (P03471 whole entry): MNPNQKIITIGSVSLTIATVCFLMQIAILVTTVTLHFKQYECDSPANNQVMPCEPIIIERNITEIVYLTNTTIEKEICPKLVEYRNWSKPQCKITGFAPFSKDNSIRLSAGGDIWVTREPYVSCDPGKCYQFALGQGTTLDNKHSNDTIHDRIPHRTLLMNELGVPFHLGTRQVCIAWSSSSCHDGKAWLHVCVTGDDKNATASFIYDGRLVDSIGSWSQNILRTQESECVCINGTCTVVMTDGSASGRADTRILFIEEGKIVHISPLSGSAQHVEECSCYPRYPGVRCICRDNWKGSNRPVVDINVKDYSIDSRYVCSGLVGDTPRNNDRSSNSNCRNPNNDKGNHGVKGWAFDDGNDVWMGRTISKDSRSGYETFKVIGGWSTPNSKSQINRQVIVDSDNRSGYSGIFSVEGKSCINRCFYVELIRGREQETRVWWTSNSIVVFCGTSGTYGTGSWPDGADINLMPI

SMILES | pIC50 [1] | pEC50 [2] | pIC50 [3] | Activity [4] | CC50 at 48 h [5] [nM] | pIC50 [6] | Stability [7] | Survival [8] [%] | Drug metabolism [9] | Drug metabolism [10] | Activity [8] | Drug uptake [11] [%]
CCC(CC)[C@H](NC(C)=O)[C@@H]1[C@H](OC(=O)NCCCOC(=O)/C=C/c2ccc(O)c(O)c2)[C@@H](C(=O)O)C[C@H]1NC(=N)N | 8.98 | 8.77 | 9.05 | Active | > 100000 | 7.57 | – | – | – | – | – | –
CCC(CC)[C@H](NC(C)=O)[C@@H]1[C@H](OC(=O)NCCCNC(=O)/C=C/c2ccc(O)c(O)c2)[C@@H](C(=O)O)C[C@H]1NC(=N)N | 9.36 | 8.81 | 8.74 | Active | > 100000 | – | Stable | 100 | Metabolite_Detected | Metabolite_Notdetected | – | –
CCC(CC)OC1C=C(C(=O)O)C[C@H](N)[C@H]1NC(C)=O (some centres undefined) | – | 7.78 | – | – | > 100000 | – | – | – | – | – | – | –
CCC(CC)[C@H](NC(C)=O)[C@@H]1[C@H](OC(=O)NCCCN)[C@@H](C(=O)O)C[C@H]1NC(=N)N | 9.03 | 8.59 | – | – | > 100000 | – | – | – | – | – | – | –
CCC(CC)[C@H](NC(C)=O)[C@@H]1[C@H](O)[C@@H](C(=O)O)C[C@H]1NC(=N)N [PERAMIVIR ANHYDROUS] | 9.32 | 8.18 | 9.40 | – | > 100000 | 8.70 | – | – | – | – | – | –
CCOC(=O)C1=C[C@@H](OC(CC)CC)[C@H](NC(C)=O)[C@@H](N)C1 [OSELTAMIVIR] | – | – | – | – | – | – | – | – | – | – | Active | –
CCC(CC)[C@H](NC(C)=O)[C@@H]1[C@H](OC(=O)NCCCO)[C@@H](C(=O)O)C[C@H]1NC(=N)N | 9.19 | 8.65 | – | – | > 100000 | – | – | – | – | – | – | 26
CCC(CC)[C@H](NC(C)=O)[C@@H]1[C@H](OC(=O)NCCCOCCCc2ccc(O)c(O)c2)[C@@H](C(=O)O)C[C@H]1NC(=N)N | 9.17 | 8.46 | – | – | > 100000 | – | – | 50 | – | – | – | –

— ChEMBL document CHEMBL4251642 (Eur J Med Chem, 2018)
